Laboratory results: ChEMBL document CHEMBL1201862, “PubChem BioAssay data set” (2004)
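Grown in 96-well plates, cells were treated for 48 hours with each compound at five concentrations. Insufficient inhibition: endpoint recorded as highest concentration tested. GI50 marks 50% less growth.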 Active and inactive are the calls of the source. Rule as the data show it: active = GI50 up to about 1.1 µM and inactive = higher.

How the values were obtained:
Experiment in all cases: NCI anticancer screen, dose series, 48 h
HCT-15 = system: HCT-15
OVCAR-8 = system: OVCAR-8
LOX IMVI = system: LOX IMVI
SNB-19 = system: SNB-19
HOP-92 = system: HOP-92
SK-MEL-28 = system: SK-MEL-28
OVCAR-4 = system: OVCAR-4
IGROV-1 = system: IGROV-1
RPMI-8226 = system: RPMI-8226
TK-10 = system: TK-10
SF-268 = system: SF-268
786-0 = system: 786-0
M14 = system: M14
SN12C = system: SN12C
MDA-MB-435 = system: MDA-MB-435
HCT-116 = system: HCT-116
MOLT-4 = system: MOLT-4
EKVX = system: EKVX
HL-60 = system: HL-60
SF-539 = system: SF-539
NCI-H522 = system: NCI-H522
U-251 = system: U-251
OVCAR-3 = system: OVCAR-3
PC-3 = system: PC-3
RXF 393 = system: RXF 393
COLO 205 = system: COLO 205
T47D = system: T47D
BT-549 = system: BT-549
MCF7 = system: MCF7
HT-29 = system: HT-29
K562 = system: K562
CCRF-CEM = system: CCRF-CEM
SF-295 = system: SF-295
SW-620 = system: SW-620
UACC-62 = system: UACC-62
UACC-257 = system: UACC-257
UO-31 = system: UO-31
SR = system: SR
DU-145 = system: DU-145
HCC 2998 = system: HCC 2998
SNB-75 = system: SNB-75
A549 = system: A549
HOP-62 = system: HOP-62
SK-MEL-5 = system: SK-MEL-5
NCI-H460 = system: NCI-H460
NCI-H23 = system: NCI-H23
MDA-N = system: MDA-N
MDA-MB-231 = system: MDA-MB-231
OVCAR-5 = system: OVCAR-5
KM12 = system: KM12
SK-OV-3 = system: SK-OV-3
ACHN = system: ACHN
A498 = system: A498
Malme-3M = system: Malme-3M
Hs-578T = system: Hs-578T
SK-MEL-2 = system: SK-MEL-2
CAKI-1 = system: CAKI-1
NCI/ADR-RES = system: NCI/ADR-RES

With `COc1cccc(-c2nc(-c3cnccn3)n(Cc3ccccc3)n2)c1` as the molecule, how does the GI50 (HCT-15) read?
The GI50 was greater than 100000 nM.

And the GI50 (OVCAR-8)?
The GI50 was > 100 µM (inactive).

What about the GI50 (LOX IMVI) of the same molecule?
Its GI50 is > 100 µM (inactive).

And the GI50 (SNB-19)?
Its GI50 is 90.4 µM (inactive).

And the GI50 (HOP-92)?
Its GI50 is 26.5 µM (inactive).

What about the GI50 (SK-MEL-28) of the same molecule?
The GI50 was 86.1 µM (inactive).

What about the GI50 (OVCAR-4) of the same molecule?
The GI50 was 21.6 µM (inactive).

And the GI50 (IGROV-1)?
The GI50 was 88.7 µM (inactive).

And the GI50 (RPMI-8226)?
Its GI50 is > 100 µM (inactive).

What about the GI50 (TK-10) of the same molecule?
Its GI50 is > 100 µM (inactive).

And the GI50 (SF-268)?
Its GI50 is > 100 µM (inactive).

And the GI50 (786-0)?
Its GI50 is 69.5 µM (inactive).

And the GI50 (M14)?
Its GI50 is > 100 µM (inactive).

And the GI50 (SN12C)?
The GI50 was > 100 µM (inactive).

What about the GI50 (MDA-MB-435) of the same molecule?
The GI50 was > 100 µM (inactive).

And the GI50 (HCT-116)?
Its GI50 is > 100 µM (inactive).

What about the GI50 (MOLT-4) of the same molecule?
Its GI50 is > 100 µM (inactive).

And the GI50 (EKVX)?
The GI50 was > 100 µM (inactive).

And the GI50 (HL-60)?
Its GI50 is > 100 µM (inactive).

And the GI50 (SF-539)?
Its GI50 is 85.1 µM (inactive).

And the GI50 (NCI-H522)?
Its GI50 is 52.1 µM (inactive).

What about the GI50 (U-251) of the same molecule?
Its GI50 is > 100 µM (inactive).

And the GI50 (OVCAR-3)?
The GI50 was > 100 µM (inactive).

And the GI50 (PC-3)?
Its GI50 is > 100 µM (inactive).

What about the GI50 (RXF 393) of the same molecule?
Its GI50 is 25.4 µM (inactive).

And the GI50 (COLO 205)?
Its GI50 is > 100 µM (inactive).

What about the GI50 (T47D) of the same molecule?
The GI50 was > 100 µM (inactive).

What about the GI50 (BT-549) of the same molecule?
The GI50 was > 100 µM (inactive).

And the GI50 (MCF7)?
The GI50 was > 100 µM (inactive).

What about the GI50 (HT-29) of the same molecule?
Its GI50 is > 100 µM (inactive).

What about the GI50 (K562) of the same molecule?
Its GI50 is > 100 µM (inactive).

What about the GI50 (CCRF-CEM) of the same molecule?
Its GI50 is > 100 µM (inactive).

What about the GI50 (SF-295) of the same molecule?
Its GI50 is 54.3 µM (inactive).

And the GI50 (SW-620)?
The GI50 was > 100 µM (inactive).

What about the GI50 (UACC-62) of the same molecule?
Its GI50 is 91.4 µM (inactive).

And the GI50 (UACC-257)?
Its GI50 is > 100 µM (inactive).

What about the GI50 (UO-31) of the same molecule?
The GI50 was 73.5 µM (inactive).

And the GI50 (SR)?
Its GI50 is > 100 µM (inactive).

And the GI50 (DU-145)?
The GI50 was > 100 µM (inactive).

What about the GI50 (HCC 2998) of the same molecule?
The GI50 was > 100 µM (inactive).

What about the GI50 (SNB-75) of the same molecule?
The GI50 was 24.4 µM (inactive).

What about the GI50 (A549) of the same molecule?
The GI50 was > 100 µM (inactive).

And the GI50 (HOP-62)?
Its GI50 is 44.4 µM (inactive).

What about the GI50 (SK-MEL-5) of the same molecule?
The GI50 was 89.3 µM (inactive).

What about the GI50 (NCI-H460) of the same molecule?
Its GI50 is > 100 µM (inactive).

And the GI50 (NCI-H23)?
Its GI50 is > 100 µM (inactive).

What about the GI50 (MDA-N) of the same molecule?
Its GI50 is > 100 µM (inactive).

And the GI50 (MDA-MB-231)?
Its GI50 is > 100 µM (inactive).

And the GI50 (OVCAR-5)?
Its GI50 is > 100 µM (inactive).

What about the GI50 (KM12) of the same molecule?
Its GI50 is > 100 µM (inactive).

And the GI50 (SK-OV-3)?
Its GI50 is 75.9 µM (inactive).

For `O=c1cc(-c2ccccc2F)[nH]c2ccc(N3CCCC3)cc12`, which GI50 (HCT-15) is on record?
Its GI50 is 33 nM.

And the GI50 (OVCAR-8)?
The GI50 was 0.0624 µM (active).

What about the GI50 (ACHN) of the same molecule?
Its GI50 is < 1 nM (active).

And the GI50 (LOX IMVI)?
The GI50 was 0.0398 µM (active).

What about the GI50 (SNB-19) of the same molecule?
Its GI50 is 0.0214 µM (active).

What about the GI50 (SK-MEL-28) of the same molecule?
Its GI50 is 0.465 µM (active).

And the GI50 (A498)?
Its GI50 is 21.5 nM (active).

And the GI50 (OVCAR-4)?
Its GI50 is 0.0269 µM (active).

What about the GI50 (IGROV-1) of the same molecule?
The GI50 was 0.792 µM (active).

And the GI50 (RPMI-8226)?
The GI50 was 0.0468 µM (active).

And the GI50 (TK-10)?
Its GI50 is 0.237 µM (active).

What about the GI50 (SF-268) of the same molecule?
Its GI50 is 0.0363 µM (active).

What about the GI50 (786-0) of the same molecule?
The GI50 was 0.0442 µM (active).

And the GI50 (M14)?
The GI50 was 0.0301 µM (active).

And the GI50 (SN12C)?
The GI50 was 0.17 µM (active).

And the GI50 (Malme-3M)?
Its GI50 is > 100 µM (inactive).

And the GI50 (MDA-MB-435)?
Its GI50 is < 0.001 µM (active).

What about the GI50 (MOLT-4) of the same molecule?
Its GI50 is 0.078 µM (active).

What about the GI50 (Hs-578T) of the same molecule?
Its GI50 is 20.1 nM (active).

And the GI50 (SK-MEL-2)?
Its GI50 is 16.7 nM (active).

And the GI50 (EKVX)?
Its GI50 is 0.00138 µM (active).

And the GI50 (HL-60)?
The GI50 was > 100 µM (inactive).

What about the GI50 (SF-539) of the same molecule?
Its GI50 is < 0.001 µM (active).

And the GI50 (NCI-H522)?
Its GI50 is 0.0326 µM (active).

And the GI50 (U-251)?
The GI50 was 0.0381 µM (active).

And the GI50 (PC-3)?
Its GI50 is < 0.001 µM (active).

And the GI50 (RXF 393)?
Its GI50 is 13 µM (inactive).

And the GI50 (COLO 205)?
Its GI50 is 0.0557 µM (active).

And the GI50 (T47D)?
Its GI50 is > 10 µM (inactive).

And the GI50 (MCF7)?
Its GI50 is 0.00745 µM (active).

And the GI50 (HT-29)?
Its GI50 is 0.0284 µM (active).

What about the GI50 (K562) of the same molecule?
The GI50 was 0.0257 µM (active).

And the GI50 (CCRF-CEM)?
Its GI50 is 0.0461 µM (active).

What about the GI50 (SW-620) of the same molecule?
The GI50 was < 0.001 µM (active).

What about the GI50 (UACC-62) of the same molecule?
Its GI50 is 0.0185 µM (active).

What about the GI50 (UACC-257) of the same molecule?
Its GI50 is 0.1 µM (active).

And the GI50 (UO-31)?
Its GI50 is 0.00274 µM (active).

What about the GI50 (SR) of the same molecule?
The GI50 was 0.498 µM (active).

And the GI50 (CAKI-1)?
The GI50 was < 1 nM (active).

What about the GI50 (NCI/ADR-RES) of the same molecule?
The GI50 was 35.2 nM (active).

And the GI50 (DU-145)?
The GI50 was 0.0535 µM (active).

And the GI50 (HCC 2998)?
Its GI50 is 0.00179 µM (active).

And the GI50 (SNB-75)?
Its GI50 is 63.2 µM (inactive).

And the GI50 (A549)?
Its GI50 is 0.0504 µM (active).

And the GI50 (HOP-62)?
The GI50 was 0.34 µM (active).

What about the GI50 (SK-MEL-5) of the same molecule?
The GI50 was 0.0419 µM (active).

And the GI50 (NCI-H460)?
The GI50 was 0.0417 µM (active).

And the GI50 (NCI-H23)?
Its GI50 is 0.00155 µM (active).

What about the GI50 (MDA-N) of the same molecule?
The GI50 was 0.0135 µM (active).

And the GI50 (MDA-MB-231)?
Its GI50 is 0.00122 µM (active).

What about the GI50 (OVCAR-5) of the same molecule?
The GI50 was 0.1 µM (active).

And the GI50 (KM12)?
The GI50 was 0.0955 µM (active).

What about the GI50 (SK-OV-3) of the same molecule?
Its GI50 is > 100 µM (inactive).
